Measurements reported in the NIST ThermoML archive (doi:10.1016/j.jct.2018.09.031).

Conditions: 101.33 kPa, Liquid; for kinematic viscosity: Capillary tube (Ostwald / Ubbelohde) method; for mass density: Pycnometric method

OCCO [1,2-ethanediol]
Conditions	kinematic viscosity [m2/s]	mass density [kg/m3]
273.15 K	5.1e-05	1127.43
283.15 K	2.96e-05	1120.35
293.15 K	1.92e-05	1113.25
303.15 K	1.28e-05	1106.26
313.15 K	8.8e-06	1099.2
323.15 K	6.22e-06	1092.07
333.15 K	4.6e-06	1084.84
